Experimental data reported in patent US5635356A, “Anti-oncoimmunin-M antibodies and uses thereof” (The United States of America as represented by the …, priority 1994, dated 1997).

System: Oncoimmunin-M treated HL-60 cells
Assay: Chemotaxis in multiwell microchemotaxis chamber
Format: cell-based, human
Details: HL-60 cells exposed to Oncoimmunin-M (2 nM) for two days; f-Met-Leu-Phe 10^-10 to 10^-6 M; 3 hr, 37° C.; FIG. 22C
Description: To assess whether the Oncoimmunin-M induced alterations in integrin expression are associated with the induction of a biologic activity which could serve a role in antitumor or antimicrobial function, HL-60 cells that had been exposed to Oncoimmunin-M (2 nM) for two days were assayed for chemotactic ability. Specifically, the treated cells were placed in a multiwell microchemotaxis chamber and assayed for their ability to migrate in response to a gradient of the chemoattractant recombinant human C5a (rHuC5a), recombinant interleukin-8, and the peptide f-Met-Leu-Phe.
Cells were suspended in the serum-free medium (SFM) at a concentration of 5×10^5 cells/ml. Assays in which the total number of cells migrating through the polyvinylpyrrolidone-free polycarbonate membranes (5 μm pores; Nucleopore Corp., Pleasanton, Calif.) were performed for 3 hr in a 37° C. incubator containing 5% CO2. After incubation, nonmigrated cells were wiped off the filters which were then fixed in methanol and stained with Diff-Quik (Dade Diagnostics, Inc., Aguada, Puerto Rico). Migrated cells were counted with an Optomax System 40-10 Image Analyzer (Optomax, Inc., Hollis, N.H., U.S.A.). Random migration was determined by quantifying cell migration to serum-free medium alone.

CSCC[C@H](NC=O)C(=O)N[C@@H](CC(C)C)C(=O)N[C@@H](Cc1ccccc1)C(=O)O [f-Met-Leu-Phe]
migratory (chemotactic) response to chemoattractant gradient: no significant response
